Patent US7592003B2, “Regulation of toll-like receptors on stem cells” (Oklahoma Medical Research Foundation, priority 2005, dated 2009)

How the values were obtained:
LKS^− cells = assay: Serum-free culture of LKS- myeloid/erythroid progenitors (and CMP, GMP subsets), F4/80 by flow cytometry; type: cell-based, mouse; settings: 72 h, compared with CSF stimulation
Protocol: FIGS. 4A-D—Activation of TLRs through MyD88 bypasses normal differentiation cues and drives monocytes/macrophages differentiation of myeloid progenitors. (FIG. 4A) Sorted LKS^− cells from C57BL/6 or MyD88^−/− mice were stimulated with medium alone, LPS (10 μg/ml), Pam3CSK4 (1 μg/ml), M-CSF, or GM-CSF. After 72 h in culture, cells were analyzed by flow cytometry for expression of F4/80. Open histograms depict staining with the isotype matched Ab for F4/80. Percentages given in each histogram indicate the frequencies of F4/80^+ cells and the results are representative of three independent experiments. (FIG. 4B) The bar graph depicts yields, i.e., numbers of F4/80^+ cell recovered per input progenitor. Data represent mean values with standard deviations from triplicate cultures and the results are representative of three independent experiments (*P<0.005). […] After 72 h in culture, cells were analyzed by flow cytometry for expression of F4/80. […] After 24 or 48 h in culture, cells were analyzed by flow cytometry for expression of F4/80. […]
FIG. 13—TLR stimulation causes rapid production of F4/80^+ cells from LKS^− cells. […] Stimulated wells were analyzed after 24 h or 48 h of culture by flow cytometry for expression of F4/80. […]

GMP = assay: Culture of sorted GMP for 72 h, morphology and Mac-1/F4/80 flow cytometry; type: cell-based, mouse
Protocol: FIGS. 5A-C—TLR stimulation drives differentiation of GMP into F4/80^hi monocytes/macrophages. (FIG. 5A) These photomicrographs were prepared with Giemsa-May-Grünwald stained cytocentrifuged slides. ([…]) Sorted GMP were stimulated with LPS (1 μg/ml), Pam3CSK4 (100 ng/ml), M-CSF, or GM-CSF. After 72 h in culture, cells were analyzed by flow cytometry for expression of F4/80 and Mac-1. Percentages indicate the frequencies of Mac-1^lo F4/80^lo or Mac-1^hi F4/80^hi cells. CD86, Gr-1, or CD62L were analyzed by flow cytometry on Mac-1^hi F4/80^hi cells. Open histograms depict staining with the appropriate isotype matched Abs. The results are representative of those obtained in two independent experiments. (FIG. 5C) The bar graphs depict cell yields of Mac-1^lo F4/80^lo or Mac-1^hi F4/80^hi cells. The data represent mean values with standard deviations from triplicate cultures and are representative of three independent experiments.
Serum-free, stromal cell-free cell cultures. Round-bottomed 96-well plates or flat-bottomed 24-well plates (Corning Inc.) were used for these cultures. […]
Cell morphology. Cytospins of cultured progenitor cells were stained with Giemsa-May-Grünwald (Sigma Diagnostics, St. Louis, Mo.), mounted in Immersol (Zeiss, Thornwood, N.Y.), and analyzed on a Zeiss Axioplan 2i microscope with a 100×/1.4 NA Plan Achromat objective. […]

Pam3CSK4
Yields of F4/80+ cells from LKS- cells (LKS^− cells): consistently a less potent stimulus
CD11b/Mac-1 expression of cells produced from GMP (GMP): Virtually all cells produced in response to LPS or Pam3CSK4 were CD11b/Mac-1^+
Morphology of recovered cells (GMP; GMP, Giemsa-May-Grünwald): less homogeneous in appearance
